Experimental data published in patent US9328134B2, “Carbohydrate phosphonate derivatives as modulators of glycosylation” (AMGEN INC., priority 2013, dated 2016).

Columns and labels:
[1] = Cell viability by propidium iodide, run with the high mannose assay; assay type: cell-based, Chinese hamster; settings: Chinese hamster, 100 μM, CS-9 CHO cells, read-out: Cell Viability max activity at 100 μM
Experimental: (§1) The effect of the example compounds on cell surface protein high mannose was measured in CS-9 CHO cells. A range of amounts of example compound was added to produce various concentrations (100 μM-0.005 uM). These were added to cells grown in batch production CHO cell media in Costar 96-well clear round bottom polypropylene plates and incubated at 37° C. in the presence of 5% CO2. Commercially available standard batch production serum free CHO media such as CD OptiCHO (Invitrogen), Power CHO (Lonza), or ExCell 325 PF CHO (commercially available from Sigma Aldrich) may be used in accordance with the assay. After 3 days, cells were analyzed by fluorescence-activated cell sorting (FACS) using FITC-labeled Concanavilin A according to the following procedure. After 3 days, 50 uL of FITC-LCA (3 ug/mL) was added to columns 1-11 and plates were incubated for 30 minutes. Plates were then centrifuged briefly (2,000 rpm), and the medium was aspirated away. Cells were washed three times with PBS with 1% BSA, resuspended in the same buffer, and analyzed on the BD LSRii instrument. Cells were simultaneously assayed for viability using propidium iodide.

[2] = test system: CS-9 CHO cells; experiment: as above; assay type: cell-based, Chinese hamster; settings: Cricetulus griseus, 72 h, 3 days
Experimental: as §1

[3] = test system: cell surface protein high mannose in CS-9 CHO cells; experiment: Assay for Cell Surface Protein High Mannose (FACS with FITC-labeled Concanavilin A); assay type: cell-based, Chinese hamster; settings: Cricetulus griseus, 72 h, 3 days
Experimental: Assay for Cell Surface Protein High Mannose
as §1

[4] = Cell viability by propidium iodide, run with the fucosylation assay; assay type: cell-based, Chinese hamster; settings: Chinese hamster, 100 μM, CS-9 CHO cells, read-out: Cell Viability max activity at 100 μM
Experimental: as §1, with “fucosylation” for “high mannose”, “FITC-Lens culinaris agglutinin (FITC-LCA, Vector Laboratories Cat#FL-1041)” for “FITC-labeled Concanavilin A”

[5] = test system: CS-9 CHO cells; experiment: as above; assay type: cell-based, Chinese hamster; settings: Cricetulus griseus, 72 h, 3 days
Experimental: as §1, with “fucosylation” for “high mannose”, “FITC-Lens culinaris agglutinin (FITC-LCA, Vector Laboratories Cat#FL-1041)” for “FITC-labeled Concanavilin A”

[6] = test system: cell surface protein fucosylation in CS-9 CHO cells; experiment: Cell Surface Protein Fucosylation Assay (FACS with FITC-LCA); assay type: cell-based, Chinese hamster; settings: Cricetulus griseus, 72 h, 3 days
Experimental: Cell Surface Protein Fucosylation Assay
as §1, with “fucosylation” for “high mannose”, “FITC-Lens culinaris agglutinin (FITC-LCA, Vector Laboratories Cat#FL-1041)” for “FITC-labeled Concanavilin A”
The following table includes IC50 values obtained using the procedures set forth above for the Example compounds described herein.

[7] = test system: CHO cells expressing anti-TRAIL IgG1 antibody; experiment: Production cultures to generate antibodies for glycan analysis (HILIC); assay type: cell-based, Chinese hamster
Experimental: Production Cultures to Generate Antibodies for Glycan Analysis
CHO cells expressing anti-TRAIL IgG1 antibody were seeded into serum-free growth medium in deep 24-well plates via 1:5 dilution. Any medium suitable for growth of CHO cells (i.e. PowerCHO by Lonza or OptiCHO by Invitrogen) can be used. The fucosylation inhibitor Example 1 compound was added to the cultures at inoculation at 5, 10, 20, 40, 80, 160 and 320 uM via 1:1000 dilution of stock solutions in DMSO. The cultures were placed into a shaking incubator (50 mm orbital diameter, 36° C., 5% CO2, 220 rpm). The growth and viability of the cultures were monitored throughout the length of the production assay. The cells were fed with feed medium and an amino acid supplement on days 3, 6 and 8. Cultures were harvested on day 10 via centrifugation and spent medium supernatants were submitted for titer analysis and protein A purification. Glycan analysis of purified antibodies was conducted via the HILIC assay.
To test whether daily doses of the Example 1 fucosylation inhibitor would result in higher inhibition profile, CHO cells expressing anti TRAIL IgG1 antibody were seeded into serum-free growth medium in deep 24-well plates via 1:5 dilution. The fucosylation inhibitor compound Example 1 (FIG. 2) and compound Example 3 (FIG. 3) were added to the cultures on a daily basis at 5, 10, 20, 40, 60, 80, and 100 uM levels via 1:1000 dilution of stock solutions in DMSO. The cultures were placed into a shaking incubator (50 mm orbital diameter, 36° C., 5% CO2, 220 rpm). The growth and viability of cultures were monitored throughout the length of the production assay. Starting on day 3, cells were centrifuged at 1000 rpm for 5 minutes, a fraction of the spent medium was removed and cells were replenished with the equivalent volume of production medium. Cultures were harvested on day 10 via a 10 minute centrifugation at 1000 rpm. Spent medium fractions collected during the course of the experiment were submitted for titer analysis. Spent medium fractions corresponding to select time-points were also purified on protein A. Glycan analysis of the purified antibodies is shown in FIGS. 2 and 3.
The PNGase F (New England Biolabs) enzymatically-released N-linked glycans from protein-purified anti-TRAIL IgG1 antibody were labeled with 2-aminobenzoic acid (2-AA) and separated by HILIC (hydrophilic interaction liquid chromatography) in-line with a fluorescence detector. The separation was performed using a Waters Acquity UPLC (Waters, Milford, Mass.). In-line MS, using an ion trap mass spectrometer (LTQ; Thermo Scientific, Waltham, Mass.) in positive mode, was incorporated to accommodate mass determination of species. Glycans were injected and bound to the column in high organic conditions and were then eluted with an increasing gradient of an aqueous ammonium formate buffer. Fast separation times were achieved using a […] small particle column format (Acquity UPLC BEH Glycan Column, 2.1×100 mm; Waters, Milford, Mass.). Total runtime including column re-equilibration for the MS compatible separation was 30 minutes. Glycan from cells treated with 320 uM Example 1 compound was 64% fucosylated vs. 77% for DMSO control, and contained 13% high mannose vs. 12% for DMSO control.

[8] = Stability of inhibitor in the culture medium; assay type: physicochemical; settings: cell culture medium

CC(=O)OC[C@H]1O[C@H](CP(=O)(OCOC(=O)C(C)(C)C)OCOC(=O)C(C)(C)C)[C@@H](OC(C)=O)[C@@H](OC(C)=O)[C@@H]1OC(C)=O [Example 4, (2R,3R,4S,5S,6S)-2-(acetoxymethyl)-6-((bis((pivaloyloxy)methoxy)phosphoryl)methyl)tetrahydro-2H-pyran-3,4,5-triyl triacetate]
viability at 3 days, 100 µM [1]: 92% | IC50 [2]: > 100 µM | IC50 [3]: 33.1 µM

CC(=O)O[C@H]1[C@H](OC(C)=O)[C@H](CP(=O)(OCOC(=O)C(C)(C)C)OCOC(=O)C(C)(C)C)O[C@@H](C(F)(F)F)[C@H]1OC(C)=O [Example 3, (2R,3S,4R,5S,6R)-2-((bis((pivaloyloxy)-methoxy)phosphoryl)methyl)-6-(trifluoromethyl)tetrahydro-2H-pyran-3,4,5-triyl triacetate]
viability at 3 days, 100 µM [4]: 90% | IC50 [5]: > 100 µM | IC50 [6]: 7 µM | Incorporation of inhibitor into antibody glycan ([7]; added to cell culture media on a daily basis, 5-100 uM): some incorporation of part of the inhibitor

CC(=O)N[C@@H]1[C@@H](OC(C)=O)[C@H](OC(C)=O)[C@@H](COC(C)=O)O[C@@H]1CP(=O)(OCOC(=O)C(C)(C)C)OCOC(=O)C(C)(C)C [Example 5, (((((2S,3R,4R,5S,6R)-3-acetamido-4,5-diacetoxy-6-(acetoxymethyl)tetrahydro-2H-pyran-2-yl)methyl)phosphoryl)bis(oxy))bis(methylene)bis(2,2-dimethylpropanoate)]
viability at 3 days, 100 µM [1]: 88% | IC50 [2]: > 100 µM | IC50 [3]: 3.4 µM

CC(=O)OCOP(=O)(C[C@H]1O[C@@H](C)[C@@H](OC(C)=O)[C@@H](OC(C)=O)[C@@H]1OC(C)=O)OCOC(C)=O [Example 2, (2S,3S,4R,5R,6S)-2-((bis(acetoxymethoxy)phosphoryl)methyl)-6-methyltetrahydro-2H-pyran-3,4,5-triyl triacetate]
viability at 3 days, 100 µM [4]: 103% | IC50 [5]: > 100 µM | IC50 [6]: 44 µM

CC(=O)O[C@@H]1[C@H](OC(C)=O)[C@H](C)O[C@H](CP(=O)(OCOC(=O)C(C)(C)C)OCOC(=O)C(C)(C)C)[C@H]1OC(C)=O [Example 1, (2S,3S,4R,5R,6S)-2-((bis((pivaloyloxy)methoxy)phosphoryl)methyl)-6-methyltetrahydro-2H-pyran-3,4,5-triyl triacetate]
viability at 3 days, 100 µM [4]: 94% | IC50 [5]: > 100 µM | IC50 [6]: 21 µM | Incorporation of inhibitor molecule into the glycan ([7]; 320 uM, HILIC with in-line MS): No trace of the inhibitor molecule was detectable in the glycan | Glycan high mannose content ([7]; 320 uM, anti-TRAIL IgG1 glycan, HILIC, DMSO control 12%): 13% | Glycan fucosylated ([7]; 320 uM, anti-TRAIL IgG1 glycan, HILIC, DMSO control 77%): 64% | inhibition at 320 µM ([7]; Cricetulus griseus, CHO, 240 h, 320 uM added at inoculation, anti-TRAIL IgG1, harvest day 10, read-out: Maximum inhibition of fucosylation (afucosylation)): ~10% | Stability of inhibitor in the medium [8]: limited stability
